Measured values taken from patent US11147797B2, “Photodynamic therapeutic compounds and photodynamic methods of treatment” (SALT AND LIGHT PHARMACEUTICALS PTY. LTD., priority 2016, dated 2021).

How the values were obtained:
[1] = system: Ras-Raf binding; experiment: Ras activation ELIZA kit assay (chemiluminescent)
Experimental: 1.5.2 ELIZA Assay: Another method to detect the inhibition of the Representative Compounds used a Ras activation ELIZA kit (Merck Millipore, Cat no 17-497). The protocol was in accordance with the manual provided with the kit. The inhibition was measured using a Chemiluminescent imaging system. The known inhibitor Kobe0065 was purchased from Focus Biosciences, Australia (www.focusbio.com.au) and used as the positive control.

[2] = system: binding between Ras and Ras-binding domain (RBD) of Rafl; experiment: Ras pulldown with inhibitor interference (Active Ras PullDown and Detection Kit, Western blot)
From the text: 1.5.1 Ras pulldown with inhibitor interference: Inhibition of compounds on binding between Ras and Ras-binding domain (RBD) of Rafl was firstly analysed using Active Ras PullDown and Detection Kit (Thermofisher Scientific, Catalogue no 16117). The protocol was in accordance with the manual supplied with the kit. Western blot analysis was used to measure the inhibition. The known Inhibitor Kobe0065 was purchased from Focus Biosciences, Australia (www.focusbio.com.au) and used as the positive control.

[3] = system: HCT-116 cells; experiment: Cell proliferation assay (Cell Titre-Blue Cell Viability Assay); format: cell-based; conditions: Homo sapiens; HCT-116 colon-cancer cell line; FIG. 9, FIG. 10; read-out: IC50, inhibition of cell growth of HCT-116
Experimental: 1.8 Cells: Human cell lines were obtained from the NIH cell culture and cultured in media recommended by supplier.
1.9: Cell Proliferation Assays: Cells (2-3000) were seeded in a 96-well plate and cultured in McCoy's 5 containing 10% (vol/vol) FBS in the presence of one of compounds. Viable cell numbers were measured using a fluorometric kit (“Cell Titre-Blue Cell Viability Assay”: Promega Inc, USA). The viable cells convert blue colour dye to red/pink after incubating at 37 degrees with 5% CO2.

[4] = Absorption spectrum; format: physicochemical; conditions: compound 10 μM; long wavelength range
Experimental: 1.4 Absorption spectrum: The absorption spectra of the Representative Compounds were acquired. The concentration of compound was 10 μM.

Structure (SMILES) | Ras-Raf inhibition, ELIZA ([1]; 10 uM compound) [%] | Ras-Raf inhibition, ELIZA ([1]; 50 uM compound) [%] | inhibition in Ras activation ELIZA assay compared with Ras pulldown assay ([1]; in words) | Ras-Raf inhibition, Ras pulldown ([2]; 10 uM compound) [%] | Ras-Raf inhibition, Ras pulldown ([2]; 50 uM compound) [%] | IC50 ([2]; estimated from Table 2, read-out: inhibition IC50, Ras pulldown assay) [µM] | IC50 [3] [µM] | absorption band [4] [nm] | IC50 ([1]; estimated from Table 2, read-out: inhibition IC50, Ras activation ELIZA assay) [µM]
C1=Cc2nc1c(-c1ccncc1)c1ccc([nH]1)c(-c1ccncc1)c1nc(c(-c3ccncc3)c3ccc([nH]3)c2-c2ccncc2)C=C1 [Representative Compound 1] | 34.61 | 35.73 | much weaker | 0 | 76.5 | 10 to 50 |  |  | 
C[n+]1cccc(-c2c3nc(c(-c4ccccc4)c4ccc(cc5nc(c(-c6ccccc6)c6ccc2[nH]6)C=C5)[nH]4)C=C3)c1.[I-] [Representative Compound 10, 3-(10,20-diphenylporphyrin-5-yl)-1-methylpyridin-1-ium iodide] | 35.2 | 13.4 |  |  |  |  | 20 to 25 | 637 | 
Cc1ccc(NC(=S)NNc2c([N+](=O)[O-])cc(C(F)(F)F)cc2[N+](=O)[O-])cc1Cl [Kobe0065, reference compound] | 66.8 | 73.11 |  | 0 | 76 |  |  |  | < 10
